Measured values from US11357774B2, “Use of a quinoline sulfonyl compound for treatment of inflammation, inflammatory disorders, autoimmune disorders and malaria” (priority 2019, dated 2022).
Like-named read-outs stand apart in the source and are kept apart here.

Columns and labels:
[1] = system: IL-8 secretion in THP-1 cells; experiment: IL-8 secretion in TNF-α-stimulated THP-1 cells (ELISA); assay type: cell-based, human; details: THP-1, TNF-α 10 ng/mL, 6 hours; VR23 at IC50 concentration (between 2 and 4 μM), BTZ 6 nM, CFZ 1 nM
Procedure: For comparison, BTZ (6 nM), CFZ (1 nM), and DEX (2 μM) were also included. *** is p<0.001, which denotes a significant difference from the TNF-α-only group, determined by a Dunnett's test. The values presented are the mean±SEM (n=3).
(§1) The enzyme-linked immunosorbent assay (ELISA) is a quantitative measurement based on sandwich-based enzyme linking, using a protein-specific capture antibody to determine the levels of single or multiple chemokines and cytokines.
The data in FIG. 12 show the levels of IL-8 secreted in the THP-1 culture medium in response to TNF-α alone (10 ng/mL) or in combination with varying concentrations (0.5, 1.0, 2, 4 or 6 μM) of VR23. For comparison, BTZ (6 nM), CFZ (1 nM) and DEX (2 μM) were also included. The measurement time was 6-hour post-stimulation. The measurement was carried out with a single-analyte ELISA.

THP-1 monocytic cells = experiment: Sulforhodamine B (SRB) assay, IC50 on THP-1 cells; assay type: cell-based, human; details: read-out: IC50
Procedure: (§2) The sulforhodamine B (SRB) assay^21 was used to determine the drug concentration that half of the cell growth/viability is inhibited (IC50). Cells were cultured in 96-well plates, with 5,000 cells in 100 μL of culture medium per well. The rest of the protocol was the same as described previously^22,23.
(§3) Data shown in Table 1 are IC50 values of VR23 and other compounds, which were determined using sulforhodamine B (SRB) assays on immunologically relevant cells (THP-1, SW-982 and PBMC). […] Two well-known proteasome inhibitors, BTZ and CFZ, were included for comparison since VR23 is also a proteasome inhibitor, albeit targeting different subunits^2. The widely used anti-inflammatory DEX was included, also for comparison.
(§4) THP-1, SW982 and PBMC cells (5,000 cells/well) were treated with each compound for 48 hours. The IC50, the drug concentration reducing cell growth/viability by 50%, was determined by a dose-response four-parameter curve (generated with GraphPad Prism V. 4.02) formed by 10 two-fold dilutions (n=3).

PBMC cells = experiment: Sulforhodamine B (SRB) assay, IC50 on PBMC; assay type: cell-based, human; details: read-out: IC50
Procedure: as §2, §3, §4

[2] = system: IL-1β, TNF-α, IL-6 and IL-8 secretion in THP-1 cells; experiment: Cytokine secretion in LPS-stimulated THP-1 cells (ELISA); assay type: cell-based, human; details: THP-1, LPS 5 μg/mL, 6 hours; VR23 0.5-6 μM, BTZ 6 nM, CFZ 1 nM, DEX 2 μM
Procedure: For comparison, BTZ (6 nM), CFZ (1 nM), and DEX (2 μM) were also included. *, **, and *** are p<0.05, p<0.01, and p<0.001, respectively, which denote a significant difference from the LPS-only group. The mean±SEM (n=3) values were determined by a Dunnett's test.
as §1
Data shown in FIG. 11 are the results of experiments carried out to investigate VR23's effect on the levels of inflammatory cytokines. […] For comparison, BTZ (6 nM), CFZ (1 nM) and DEX (2 μM) were also included. The levels of cytokine secreted in cell culture supernatants were measured by a single-analyte ELISA. The IC50 value of VR23 is 3 μM and the concentrations of BTZ, CFZ and DEX used are their respective IC50 values.

[3] = system: IL-6 and TNF-α secretion in human PBMC; experiment: IL-6 and TNF-α in PHA-p-stimulated human PBMC (ELISA); assay type: cell-based; details: PHA-p 10 μg/mL, 6 hours
Procedure: (§5) The values presented are the mean±SEM (n=2).
as §1
Data in FIG. 14 show the levels of IL-6 (upper plot) and TNF-α (lower plot) in human PBMC (1×10^6/mL cells) stimulated with 10 μg/mL phytohemagglutinin-p (PHA-p) (10 μg/mL) for 6 hours, in the absence (control) or presence of varying concentrations of VR23 (0.38, 0.75, 1.5, 3 or 6 μM) or BTZ (6.25, 12.5, 25 or 50 nM). The measurement was carried out with a single-analyte ELISA.

[4] = system: IL-6 secretion in HFLS-N cells; experiment: IL-6 secretion in stimulated HFLS-N cells (ELISA); assay type: cell-based, human; details: IL-1β 10 ng/mL, 6 hours, VR23 2.5-10 μM, HCQ 15 or 30 μM
Procedure: (§6) The mean±SEM (n=3) values were determined by a Dunnett's test.
as §5, §1
(§7) This finding was extended to human cells relevant to autoimmune diseases. Human fibroblast-like synoviocytes (HFLS) are present in the synovial fluid of joint capsules and produce harmful molecules that contribute to joint destruction and the exacerbation of the disease in rheumatoid arthritis patients. […] The cells were then stimulated with IL-1β (FIG. 16) or LPS (FIG. 17), in the absence (control; IL-1β only) or presence of VR23 or HCQ. HCQ was included for comparison because it is often used to treat rheumatoid arthritis. […] For “VR23 only” samples, 5 μM VR23 was used. Fifty thousand HFLS cells per mL were used for the experiment. Cytokine levels in cell culture supernatants were determined by a single-analyte ELISA. […] Fifty thousand HFLS cells per mL were used for the experiment. The cytokine secretion was measured in cell culture supernatants by a single-analyte ELISA.

[5] = system: IL-6 secretion in SW-982 synovial cells; experiment: IL-6 secretion in IL-1β-stimulated SW-982 synovial cells (ELISA); assay type: cell-based, human; details: SW-982, IL-1β 1 ng/mL, 6 hours; VR23 10 μM, HCQ 60 μM
Procedure: The mean±SEM (n=2) values were determined by a Dunnett's test.
as §1
The measurement was carried out with a single-analyte ELISA. […] While not wishing to be limited by theory, cytokine IL-6 is strongly implicated to the progress of rheumatoid arthritis^29.

[6] = system: SW-982 synovial cell line; experiment: Sulforhodamine B (SRB) assay, IC50 on SW-982 cells; assay type: cell-based; details: Homo sapiens; SW982 cells, 48 hours, SRB; read-out: IC50
Procedure: as §2, §3, §4

[7] = system: human fibroblast-like synoviocytes from rheumatoid arthritis patients (HFLS-RA); experiment: Viability test, HFLS-RA cells; assay type: cell-based; details: 6 hours, IL-1β 10 ng/mL, VR23 1.25-5.0 μM, HCQ 7.5-30 μM
Procedure: The values presented are the mean±SEM (n=3).
The CCK-8 assay was used to count viable cells under the various treatment conditions. Briefly, cells were cultured in 11 columns of a 96-well clustered plate, with 5,000 cells in 100 μL of culture medium per well, excluding one column for a media-only control. The plate was incubated overnight at 37° C. in the humidified conditions, followed by treatment with test compounds diluted in the culture medium (10 μL). Each column was treated with a different condition so that each treatment could have 8 repeats. […] The absorbance was measured using an automatic plate reader (Synergy H4 Hybrid Multi-Mode Microplate Reader, BioTek, Montreal, Canada) at 450 nm wavelength. The cell viability of each treatment sample was determined by using the following equation (%)=(Abstrtmt-Absmedia)/(AbsuT-Absmedia)*100, where Abstrtmt is the absorbance value of cells with the various treatment conditions; Absmedia is the absorbance of the well containing media only; AbsuT is the absorbance of the wells with untreated cells.
This finding was extended to human cells relevant to autoimmune diseases. […] Cytokine levels in cell culture supernatants were determined by a single-analyte ELISA. […] The cytokine secretion was measured in cell culture supernatants by a single-analyte ELISA.

[8] = system: IL-6 secretion in HFLS-RA cells; experiment: IL-6 secretion in stimulated HFLS-RA cells (ELISA); assay type: cell-based, human; details: HFLS-RA, IL-1β 10 ng/mL, 6 hours; VR23 2.5-10 μM, HCQ 15 or 30 μM
Procedure: as §6, §5, §1, §7

SMILES	IL-8 secretion [1]	IC50 (THP-1 monocytic cells; 48 hours)	IC50 (THP-1 monocytic cells; Homo sapiens, THP-1, 48 h)	IC50 (PBMC cells; 48 hours)	IC50 (PBMC cells; Homo sapiens, 48 h)	levels of inflammatory cytokines IL-1β, TNF-α, IL-6, IL-8 [2]	PHA-induced IL-6 ([3]; VR23 1.5 μM, BTZ 6 nM)	PHA-induced TNF-α ([3]; VR23 3.0 μM, BTZ 4× the IC50 dose)	IL-6 secretion, dose dependence [4]	secretion of IL-6 [5]	IC50 [6]	cell viability [7]	IL-6 secretion, dose dependence [8]
CC(C)C[C@H](NC(=O)[C@H](Cc1ccccc1)NC(=O)c1cnccn1)B(O)O [BTZ, bortezomib, reference compound]	substantially reduced IL-8	5.91 ± 0.34 nM	6 nM	5.86 ± 0.3 nM	6 nM	do not	reduced the level of IL-6	largely ineffective in reducing the level of TNF-α					
CC(C)C[C@H](NC(=O)[C@H](CCc1ccccc1)NC(=O)CN1CCOCC1)C(=O)N[C@@H](Cc1ccccc1)C(=O)N[C@@H](CC(C)C)C(=O)[C@@]1(C)CO1 [CFZ, carfilzomib, reference compound]	not effective at all	1.01 ± 0.11 nM	1 nM			do not							
C[C@@H]1C[C@H]2[C@@H]3CCC4=CC(=O)C=C[C@]4(C)[C@@]3(F)[C@@H](O)C[C@]2(C)[C@@]1(O)C(=O)CO [DEX, Dexamethasone]		2070 ± 67 nM	2000 nM										
CCN(CCO)CCCC(C)Nc1ccnc2cc(Cl)ccc12 (stereo not shown) [HCQ, hydroxychloroquine, reference compound]									decreases in a dose dependent manner	comparable	28200 nM	none of the conditions examined significantly affected the viability	decreases in a dose dependent manner
